Source: PubChem BioAssay AID248 (DTP/NCI, 2004)
Where “and” joins values, the source holds several entries; their conditions need not be identical. Identical values can stand only once. Toxic doses and inconclusive results are not listed. No stated cut-off is given here; in the data, active means T/C of 150% or more; inactive means T/C below 125%.

System: L1210 leukemia ip in BDF1 mice, survival T/C
Assay: NCI In Vivo Anticancer Drug Screen. Data for tumor model L1210 Leukemia (intraperitoneal) in B6D2F1 (BDF1) mice
Details: endpoint: mean survival time, higher = longer survival
Method in brief: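 Ratio derived from survival: compound-dosed mice over vehicle-dosed mice, all bearing a transplantable tumor.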

[1] = dose: 100.0 mg/kg/injection, schedule: Q01DX009 (ip), vehicle: Klucel (hydroxypropylcellulose) (HPC)
[2] = dose: 200.0 mg/kg/injection, schedule: Q01DX009 (ip), vehicle: Klucel (hydroxypropylcellulose) (HPC)
[3] = dose: 100.0 mg/kg/injection, schedule: Q01DX001 (ip), vehicle: saline
[4] = dose: 200.0 mg/kg/injection, schedule: Q01DX001 (ip), vehicle: saline
[5] = dose: 400.0 mg/kg/injection, schedule: Q01DX001 (ip), vehicle: saline
[6] = dose: 100.0 mg/kg/injection, schedule: Q04DX003 (ip), vehicle: saline with Tween-80
[7] = dose: 200.0 mg/kg/injection, schedule: Q04DX003 (ip), vehicle: saline with Tween-80
[8] = dose: 400.0 mg/kg/injection, schedule: Q04DX003 (ip), vehicle: saline with Tween-80
[9] = dose: 100.0 mg/kg/injection, schedule: Q04DX003 (ip), vehicle: saline
[10] = dose: 50.0 mg/kg/injection, schedule: Q01DX001 (ip), vehicle: carboxymethylcellulose (CMC)
[11] = dose: 100.0 mg/kg/injection, schedule: Q01DX001 (ip), vehicle: carboxymethylcellulose (CMC)
[12] = dose: 200.0 mg/kg/injection, schedule: Q01DX001 (ip), vehicle: carboxymethylcellulose (CMC)
[13] = dose: 400.0 mg/kg/injection, schedule: Q01DX001 (ip), vehicle: carboxymethylcellulose (CMC)
[14] = dose: 400.0 mg/kg/injection, schedule: Q01DX009 (ip), vehicle: Klucel (hydroxypropylcellulose) (HPC)
[15] = dose: 100.0 mg/kg/injection, schedule: Q01DX009 (ip), vehicle: saline with Tween-80
[16] = dose: 200.0 mg/kg/injection, schedule: Q01DX009 (ip), vehicle: saline with Tween-80
[17] = dose: 50.0 mg/kg/injection, schedule: Q01DX009 (ip), vehicle: saline with Tween-80
[18] = dose: 100.0 mg/kg/injection, schedule: Q04DX002 (ip), vehicle: Klucel (hydroxypropylcellulose) (HPC)
[19] = dose: 200.0 mg/kg/injection, schedule: Q04DX002 (ip), vehicle: Klucel (hydroxypropylcellulose) (HPC)
[20] = dose: 400.0 mg/kg/injection, schedule: Q04DX002 (ip), vehicle: Klucel (hydroxypropylcellulose) (HPC)

Measured: T/C

CC1(C)CC(C)(c2ccccc2)c2ccccc21 (centres undefined)
inactive: dose: 50.0 mg/kg/injection, schedule: Q01DX009 (ip), vehicle: Klucel (hydroxypropylcellulose) (HPC) 101 % of control | dose: 75.0 mg/kg/injection, schedule: Q04DX003 (ip), vehicle: Klucel (hydroxypropylcellulose) (HPC) 104 % of control | [1] 95 % of control | dose: 150.0 mg/kg/injection, schedule: Q04DX003 (ip), vehicle: Klucel (hydroxypropylcellulose) (HPC) 102 % of control | [2] 95 % of control | dose: 300.0 mg/kg/injection, schedule: Q04DX003 (ip), vehicle: Klucel (hydroxypropylcellulose) (HPC) 102 % of control

FC(F)(F)COC(Br)CBr (centres undefined)
inactive: dose: 15.0 mg/kg/injection, schedule: Q01DX001 (ip), vehicle: carboxymethylcellulose (CMC) 101 % of control | dose: 30.0 mg/kg/injection, schedule: Q01DX001 (ip), vehicle: carboxymethylcellulose (CMC) 93 % of control | dose: 60.0 mg/kg/injection, schedule: Q01DX001 (ip), vehicle: carboxymethylcellulose (CMC) 95 % of control

C=C1C(=O)OCC1(C(=O)OCC)C(=O)OCC
inactive: dose: 5.0 mg/kg/injection, schedule: Q01DX009 (ip), vehicle: saline 98 % of control | dose: 10.0 mg/kg/injection, schedule: Q01DX009 (ip), vehicle: saline 103 % of control | dose: 20.0 mg/kg/injection, schedule: Q01DX009 (ip), vehicle: saline 95 % of control

Cc1ccc(S(=O)(=O)Nc2ccccc2O)cc1
inactive: [3] 102 % of control | [4] 98 % of control | [5] 98 % of control

C=CCOc1ncnc2nc[nH]c12
inactive: [6] 102 % of control | [7] 96 % of control | [8] 101 % of control

COc1ccc(C(=O)C(Br)(Cc2ccccc2)OC)cc1 (centres undefined)
inactive: dose: 66.0 mg/kg/injection, schedule: Q04DX003 (ip), vehicle: saline 93 % of control | [9] 94 % of control | dose: 150.0 mg/kg/injection, schedule: Q04DX003 (ip), vehicle: saline 94 % of control

BrC1CC2C3CCC(C3)C2C1Br (centres undefined)
inactive: [10] 91 % of control | [11] 93 % of control | [12] 93 % of control | [13] 93 % of control

COc1ccc(OC)c(NC(=O)Oc2ccc3c(C)cc(=O)oc3c2)c1
inactive: [1] 101 % of control | [2] 97 % of control | [14] 87 % of control

O=C(N/N=C\c1ccc(Cl)cc1Cl)C1CC1
inactive: dose: 15.0 mg/kg/injection, schedule: Q01DX Z (ip), vehicle: carboxymethylcellulose (CMC) 97 % of control | dose: 30.0 mg/kg/injection, schedule: Q01DX Z (ip), vehicle: carboxymethylcellulose (CMC) 92 % of control | dose: 30.0 mg/kg/injection, schedule: Q01DX Z (oral), vehicle: carboxymethylcellulose (CMC) 98 % of control | dose: 60.0 mg/kg/injection, schedule: Q01DX Z (ip), vehicle: carboxymethylcellulose (CMC) 95 % of control | dose: 60.0 mg/kg/injection, schedule: Q01DX Z (oral), vehicle: carboxymethylcellulose (CMC) 100 % of control | dose: 120.0 mg/kg/injection, schedule: Q01DX Z (oral), vehicle: carboxymethylcellulose (CMC) 121 % of control

CCC(C)OC(=O)Nc1cccc(OC(=O)NC)c1 (centres undefined)
inactive: [6] 104 % of control | [7] 94 % of control | [8] 97 % of control

O=C1C=C(N2CCCC2)CC1
inactive: dose: 75.0 mg/kg/injection, schedule: Q01DX001 (ip), vehicle: saline 101 % of control | dose: 150.0 mg/kg/injection, schedule: Q01DX001 (ip), vehicle: saline 104 % of control

CCCCCCCCC1C(CCCCCCCC(=O)OC)SC(F)(F)C1(F)F (centres undefined)
inactive: [15] 95 % of control | [16] 93 % of control | dose: 400.0 mg/kg/injection, schedule: Q01DX009 (ip), vehicle: saline with Tween-80 102 % of control

Cn1nnc(C(N)=O)n1
inactive: [3] 93 % of control | [4] 98 % of control | [5] 94 % of control

CC(C)C1C(C(C)C)N1C(=O)Nc1ccccc1 (centres undefined)
inactive: dose: 100.0 mg/kg/injection, schedule: Q01DX001 (ip), vehicle: Klucel (hydroxypropylcellulose) (HPC) 93 % of control | dose: 200.0 mg/kg/injection, schedule: Q01DX001 (ip), vehicle: Klucel (hydroxypropylcellulose) (HPC) 96 % of control | dose: 400.0 mg/kg/injection, schedule: Q01DX001 (ip), vehicle: Klucel (hydroxypropylcellulose) (HPC) 93 % of control

O=[N+]([O-])c1cccc(S(=O)(=O)OCC2CO2)c1 (centres undefined)
inactive: [1] 98 % of control | [2] 104 % of control

Cc1cc([N+](=O)[O-])cc(C)c1N=CN(C)C
inactive: dose: 50.0 mg/kg/injection, schedule: Q01DX001 (ip), vehicle: saline 107 % of control | [3] 105 % of control | [4] 122 % of control | [5] 104 % of control

c1ccc(-c2c(-c3ccc4c(c3)OCO4)c(-c3ccc4c(c3)OCO4)c(-c3ccccc3)c3ccccc23)cc1
inactive: dose: 100.0 mg/kg/injection, schedule: Q01DX001 (ip), vehicle: saline with Tween-80 92 % of control | dose: 200.0 mg/kg/injection, schedule: Q01DX001 (ip), vehicle: saline with Tween-80 100 % of control

O=C(COc1ccc(Cl)c(Cl)c1)NCc1ccc[n+](CC(=O)Nc2ccc(S(=O)(=O)F)cc2)c1
inactive: dose: 100.0 mg/kg/injection, schedule: Q01DX009 (ip), vehicle: saline 100 % of control | dose: 200.0 mg/kg/injection, schedule: Q01DX009 (ip), vehicle: saline 94 % of control

O=c1[nH][nH]c(=O)c2c1nc(SCc1ccccc1Br)n2Cc1ccccc1
inactive: [11] 95 % of control | [12] 97 % of control | [13] 97 % of control

CCOC(=O)N1CCN(C(=O)OCC)CC1
inactive: [17] 95 % of control | [15] 95 % of control | [16] 95 % of control

O=NN(Cc1ccc(Cl)cc1)Nc1ncc[nH]1
inactive: [18] 101 % of control | [19] 96 % of control | [20] 93 % of control

O=[Se](c1ccccc1)c1ccccc1
inactive: dose: 25.0 mg/kg/injection, schedule: Q04DX002 (ip), vehicle: Klucel (hydroxypropylcellulose) (HPC) 103 % of control | dose: 50.0 mg/kg/injection, schedule: Q04DX002 (ip), vehicle: Klucel (hydroxypropylcellulose) (HPC) 94 % of control | [18] 87 % of control

CCOC=NC1=C(C#N)CN(Cc2ccccc2)CC1
inactive: [18] 93 % of control | [19] 93 % of control | [20] 90 % of control

CC(=O)OC1CCCC2=C(C)C(=O)CCC21C (centres undefined)
inactive: [17] 100 % of control | [15] 118 % of control | [16] 94 % of control

CN(C)NP(=O)(NN(C)C)N(C)C
inactive: [9] 100 % of control | dose: 200.0 mg/kg/injection, schedule: Q04DX003 (ip), vehicle: saline 100 % of control | dose: 400.0 mg/kg/injection, schedule: Q04DX003 (ip), vehicle: saline 94 % of control

O=S(=O)(Cc1ccccc1)C(Cl)(Cl)c1ccccc1
inactive: [3] 91 % of control | [1] 96 % of control | dose: 100.0 mg/kg/injection, schedule: Q04DX003 (ip), vehicle: Klucel (hydroxypropylcellulose) (HPC) 110 % of control | [4] 107 % of control | [2] 102 % of control | dose: 200.0 mg/kg/injection, schedule: Q04DX003 (ip), vehicle: Klucel (hydroxypropylcellulose) (HPC) 104 % of control | [5] 105 % of control | [14] 95 % of control | dose: 400.0 mg/kg/injection, schedule: Q04DX003 (ip), vehicle: Klucel (hydroxypropylcellulose) (HPC) 103 % of control

Cc1cccc(C(=O)N(C)C(c2ccco2)P(=O)(c2ccccc2)c2ccccc2)c1 (centres undefined)
inactive: [10] 103 % of control | dose: 50.0 mg/kg/injection, schedule: Q01DX009 (ip), vehicle: carboxymethylcellulose (CMC) 94 % of control and 92 % of control | [11] 104 % of control | dose: 100.0 mg/kg/injection, schedule: Q01DX009 (ip), vehicle: carboxymethylcellulose (CMC) 94 % of control and 95 % of control | [12] 95 % of control | dose: 200.0 mg/kg/injection, schedule: Q01DX009 (ip), vehicle: carboxymethylcellulose (CMC) 89 % of control
